Experimental data published in article PMC9848286, “Design, synthesis, and biological investigation of oxadiazolyl, thiadiazolyl, and pyrimidinyl linked antipyrine derivatives as potential non-acidic anti-inflammatory agents” (Journal of Enzyme Inhibition and Medicinal Chemistry, 2023).

Tests used:
COX-2 = molecular target: T1, COX-2 (Homo sapiens, UniProt P35354); assay: In vitro COX-2 inhibition, colorimetric screening assay kit; details: for (SI) in vitro COX-2 selectivity index: COX-1 IC50/COX-2 IC50; for HillSlope (best-fit value), COX-2 inhibition / LogIC50 (best-fit value), COX-2 inhibition: supplementary dose-response curve
T1 sequence (P35354 18-604): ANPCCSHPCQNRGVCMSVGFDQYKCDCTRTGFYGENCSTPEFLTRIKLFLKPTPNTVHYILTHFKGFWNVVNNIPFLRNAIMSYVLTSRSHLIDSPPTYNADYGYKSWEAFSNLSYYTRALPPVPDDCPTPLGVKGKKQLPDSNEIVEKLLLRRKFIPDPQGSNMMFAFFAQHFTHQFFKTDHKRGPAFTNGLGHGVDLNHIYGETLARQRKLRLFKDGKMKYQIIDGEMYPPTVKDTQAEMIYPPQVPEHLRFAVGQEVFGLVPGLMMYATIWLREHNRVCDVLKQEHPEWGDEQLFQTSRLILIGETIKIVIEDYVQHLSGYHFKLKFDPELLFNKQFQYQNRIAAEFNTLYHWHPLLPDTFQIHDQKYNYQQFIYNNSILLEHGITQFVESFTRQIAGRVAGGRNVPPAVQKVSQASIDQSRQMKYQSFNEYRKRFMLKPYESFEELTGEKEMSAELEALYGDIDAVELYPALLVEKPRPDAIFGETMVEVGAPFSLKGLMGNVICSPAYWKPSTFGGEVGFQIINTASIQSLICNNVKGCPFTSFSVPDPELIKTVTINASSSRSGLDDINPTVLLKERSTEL
Procedure: (§1) This assay examined the inhibitory potency of the target structures towardboth COX isoforms via colorimetric screening assay kit (Cayman Chemical, MI, United States) based on the directions provided by the manufacturer. ELISA reader Thermo Scientific Multiskan® EX (Thermo scientific, United States) was used. […] Serial dilutions of CLX, as a reference standard, and tested compounds at concentrations of 1000, 300, 100, 30, 10, 3, 1, and 0.30 nM were used in the assay. IC50 of the tested compounds were determined using three different experiments. The selectivity (SI) of each ompound was measured using the COX-2/COX-1 ratio, which compares the IC50 of COX-2 and COX-1.

COX-1 = molecular target: T2, COX-1 (Ovis aries, UniProt P05979); assay: In vitro COX-1 inhibition, colorimetric screening assay kit; details: for HillSlope (best-fit value), COX-1 inhibition / LogIC50 (best-fit value), COX-1 inhibition: supplementary dose-response curve
T2 sequence (P05979 25-600): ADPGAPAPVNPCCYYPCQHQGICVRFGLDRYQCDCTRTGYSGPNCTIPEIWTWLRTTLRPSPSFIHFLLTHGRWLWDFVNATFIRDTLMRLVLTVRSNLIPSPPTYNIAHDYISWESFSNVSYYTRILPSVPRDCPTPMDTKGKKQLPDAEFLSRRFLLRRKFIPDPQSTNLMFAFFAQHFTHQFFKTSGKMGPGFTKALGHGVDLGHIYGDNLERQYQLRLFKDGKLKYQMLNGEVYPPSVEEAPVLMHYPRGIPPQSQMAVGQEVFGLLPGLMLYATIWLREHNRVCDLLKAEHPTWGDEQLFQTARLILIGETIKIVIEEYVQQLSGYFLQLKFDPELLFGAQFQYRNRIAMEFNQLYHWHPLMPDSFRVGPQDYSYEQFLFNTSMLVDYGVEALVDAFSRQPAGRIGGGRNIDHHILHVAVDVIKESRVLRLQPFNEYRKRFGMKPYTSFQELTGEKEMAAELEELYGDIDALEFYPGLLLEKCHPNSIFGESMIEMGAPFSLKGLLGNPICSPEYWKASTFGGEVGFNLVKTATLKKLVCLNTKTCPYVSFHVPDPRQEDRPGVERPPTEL
Procedure: as §1

Row | melting point | IC50 (COX-2) | (SI) in vitro COX-2 selectivity index (COX-2) | HillSlope (best-fit value), COX-2 inhibition (COX-2) | LogIC50 (best-fit value), COX-2 inhibition (COX-2) | IC50 (COX-1) | HillSlope (best-fit value), COX-1 inhibition (COX-1) | LogIC50 (best-fit value), COX-1 inhibition (COX-1) | SMILES
1 | 166 to 168 °C | 0.0687 ± 0.00219 µM | 1.33 | -0.3543 | 1.837 Log (nM) | 0.0916 ± 0.00215 µM | -0.3099 | 1.962 Log (nM) | COc1ccc(-c2nc(SCC(=O)Nc3c(C)n(C)n(-c4ccccc4)c3=O)[nH]c(=O)c2C#N)cc1 [8d, 2-((5-Cyano-4–(4-methoxyphenyl)-6-oxo-1,6-dihydropyrimidin-2-yl)thio)-N-(1,5-dimethyl-3-oxo-2-phenyl-2,3-dihydro-1H-pyrazol-4-yl)acetamide]
2 | 243 to 245 °C | 0.13 ± 0.0021 µM | 1.26 | -0.3953 | 2.113 Log (nM) | 0.164 ± 0.00239 µM | -0.2705 | 2.214 Log (nM) | Cc1c(NC(=O)CSc2nc(-c3ccc(Br)cc3)c(C#N)c(=O)[nH]2)c(=O)n(-c2ccccc2)n1C [8c, 2-((4–(4-Bromophenyl)-5-cyano-6-oxo-1,6-dihydropyrimidin-2-yl)thio)-N-(1,5-dimethyl-3-oxo-2-phenyl-2,3-dihydro-1H-pyrazol-4-yl)acetamide]
3 | 239 to 241 °C | 0.12 ± 0.00206 µM | 1.74 | -0.3650 | 2.079 Log (nM) | 0.209 ± 0.00221 µM | -0.3071 | 2.320 Log (nM) | Cc1c(NC(=O)CSc2nc(-c3ccc(Cl)cc3)c(C#N)c(=O)[nH]2)c(=O)n(-c2ccccc2)n1C [8b, 2-((4–(4-Chlorophenyl)-5-cyano-6-oxo-1,6-dihydropyrimidin-2-yl)thio)-N-(1,5-dimethyl-3-oxo-2-phenyl-2,3-dihydro-1H-pyrazol-4-yl)acetamide]
4 | > 300 °C | 0.0886 ± 0.00219 µM | 1.57 | -0.3794 | 1.948 Log (nM) | 0.139 ± 0.00231 µM | -0.3685 | 2.142 Log (nM) | Cc1ccc(-c2nc(SCC(=O)Nc3c(C)n(C)n(-c4ccccc4)c3=O)[nH]c(=O)c2C#N)cc1 [8a, 2-((5-Cyano-6-oxo-4-(p-tolyl)-1,6-dihydropyrimidin-2-yl)thio)-N-(1,5-dimethyl-3-oxo-2-phenyl-2,3-dihydro-1H-pyrazol-4-yl)acetamide]

More lines, now with the values behind:

Row | SMILES | melting point | IC50 (COX-2) | (SI) in vitro COX-2 selectivity index (COX-2) | HillSlope (best-fit value), COX-2 inhibition (COX-2) | LogIC50 (best-fit value), COX-2 inhibition (COX-2) | IC50 (COX-1) | HillSlope (best-fit value), COX-1 inhibition (COX-1) | LogIC50 (best-fit value), COX-1 inhibition (COX-1)
5 | Cc1c(NC(=O)CSc2nnc(NC(=O)Nc3ccc(Cl)cc3)s2)c(=O)n(-c2ccccc2)n1C [6d, 2-((5–(3-(4-Chlorophenyl)ureido)-1,3,4-thiadiazol-2-yl)thio)-N-(1,5-dimethyl-3-oxo-2-phenyl-2,3-dihydro-1H-pyrazol-4-yl)acetamide] | 248 to 250 °C | 0.169 ± 0.00234 µM | 0.63 | -0.3273 | 2.228 Log (nM) | 0.106 ± 0.00216 µM | -0.3655 | 2.025 Log (nM)
6 | COc1ccc(NC(=O)Nc2nnc(SCC(=O)Nc3c(C)n(C)n(-c4ccccc4)c3=O)s2)cc1 [6c, N-(1,5-Dimethyl-3-oxo-2-phenyl-2,3-dihydro-1H-pyrazol-4-yl)-2-((5–(3-(4-methoxyphenyl)ureido)-1,3,4-thiadiazol-2-yl)thio)acetamide] | 250 to 252 °C | 0.0861 ± 0.00226 µM | 3.28 | -0.3558 | 1.935 Log (nM) | 0.2821 ± 0.00234 µM | -0.2958 | 2.450 Log (nM)
7 | Cc1ccc(NC(=O)Nc2nnc(SCC(=O)Nc3c(C)n(C)n(-c4ccccc4)c3=O)s2)cc1 [6b, N-(1,5-Dimethyl-3-oxo-2-phenyl-2,3-dihydro-1H-pyrazol-4-yl)-2-((5–(3-(p-tolyl)ureido)-1,3,4-thiadiazol-2-yl)thio)acetamide] | 253 to 255 °C | 0.104 ± 0.00225 µM | 0.79 | -0.2866 | 2.016 Log (nM) | 0.0823 ± 0.00228 µM | -0.3398 | 1.915 Log (nM)
8 | Cc1ccc(-c2nnc(SCC(=O)Nc3c(C)n(C)n(-c4ccccc4)c3=O)o2)cc1 [4a, N-(1,5-Dimethyl-3-oxo-2-phenyl-2,3-dihydro-1H-pyrazol-4-yl)-2-((5-(p-tolyl)-1,3,4-oxadiazol-2-yl)thio)acetamide] | 234 to 236 °C | 0.0869 ± 0.00219 µM | 2.05 | -0.3184 | 1.939 Log (nM) | 0.178 ± 0.00215 µM | -0.3744 | 2.252 Log (nM)
9 | Cc1c(NC(=O)CSc2nnc(-c3ccc([N+](=O)[O-])cc3)o2)c(=O)n(-c2ccccc2)n1C [4d, N-(1,5-Dimethyl-3-oxo-2-phenyl-2,3-dihydro-1H-pyrazol-4-yl)-2-((5–(4-nitrophenyl)-1,3,4-oxadiazol-2-yl)thio)acetamide] | 214 to 216 °C | 0.0655 ± 0.00223 µM | 0.77 | -0.3340 | 1.817 Log (nM) | 0.0508 ± 0.00218 µM | -0.3754 | 1.705 Log (nM)
10 | Cc1c(NC(=O)CSc2nnc(NC(=O)Nc3ccccc3)s2)c(=O)n(-c2ccccc2)n1C [6a, N-(1,5-Dimethyl-3-oxo-2-phenyl-2,3-dihydro-1H-pyrazol-4-yl)-2-((5–(3-phenylureido)-1,3,4-thiadiazol-2-yl)thio)acetamide] | 254 to 256 °C | 0.155 ± 0.00207 µM | 0.85 | -0.3826 | 2.190 Log (nM) | 0.132 ± 0.00236 µM | -0.3215 | 2.119 Log (nM)
